Laboratory results: patent US20230241061A1, “METHODS AND PHARMACEUTICAL COMPOSITIONS FOR THE TREATMENT OF FGFR3-RELATED COGNITIVE DEFICIT” (INSERM (INSTITUT NATIONAL DE LA SANTÉ ET DE LA RECHERCHE …, priority 2020, published 2023)
“Also recorded” adds a separate entry of the source.

Assays:
Fgfr3^A385E/+ mice [1] = experiment: Novel object recognition (NOR) in CAN mouse model; assay type: in vivo; settings: 4-month-old male Fgfr3^A385E/+ mice, daily intra-cerebro-ventricular injections for 7 days, compared to control littermates, FIG. 2B
Procedure: A. Local daily intracerebroventricular injection with either BGJ398 or vehicle in 4 month-old male animals during 7 days. NOR training session occurred 1 hour after last injection B. NOR performed on groups injected with vehicle or BGJ398. Injection and NOR were performed on two independent groups with the three conditions each (Fgfr3^+/+ + vehicle, n=15; Fgfr3^A385E/+ + vehicle, n=14; Fgfr3^A385E/+ + BGJ398, n=14. C. Local daily intracerebroventricular injection with either BGJ398 or vehicle in 4 month-old male animals during 7 days. One FST testing session occurring 1 hour after last injection. Immobility duration was assessed during testing. D. FST performed on groups injected with vehicle or BGJ398. Injection and FST were performed on two independent groups with the three conditions each (Fgfr3^+/+ + vehicle, n=15; Fgfr3^A385E/+ + vehicle, n=14; Fgfr3^A385E/+ + BGJ398, n=14). *P<0.05 **P<0.01, ***P<0.001.NS Not significant by ANOVA with Tukey’s multiple comparisons post-test and Student’s unpaired t test. […]
(§1) We used a modified version of the NOR task as described in Glatigny et al., 2019. […] The testing room was lit with two 60-W light bulbs and behavior sessions were recorded with a camera above the testing arena (grey plastic box (60 × 40 × 32 cm)). […] The objects elicited equal levels of exploration as determined in pilot experiments and training phase. […]

Fgfr3^A385E/+ mice [2] = experiment: Forced swim test (FST) in CAN mouse model; assay type: in vivo; settings: 4-month-old male Fgfr3^A385E/+ mice, daily intra-cerebro-ventricular injections for 7 days, test 1 hour after last injection, FIG. 2D
Procedure: A. Local daily intracerebroventricular injection with either BGJ398 or vehicle in 4 month-old male animals during 7 days. NOR training session occurred 1 hour after last injection B. NOR performed on groups injected with vehicle or BGJ398. Injection and NOR were performed on two independent groups with the three conditions each (Fgfr3^+/+ + vehicle, n=15; Fgfr3^A385E/+ + vehicle, n=14; Fgfr3^A385E/+ + BGJ398, n=14. C. Local daily intracerebroventricular injection with either BGJ398 or vehicle in 4 month-old male animals during 7 days. One FST testing session occurring 1 hour after last injection. Immobility duration was assessed during testing. D. FST performed on groups injected with vehicle or BGJ398. Injection and FST were performed on two independent groups with the three conditions each (Fgfr3^+/+ + vehicle, n=15; Fgfr3^A385E/+ + vehicle, n=14; Fgfr3^A385E/+ + BGJ398, n=14). *P<0.05 **P<0.01, ***P<0.001.NS Not significant by ANOVA with Tukey’s multiple comparisons post-test and Student’s unpaired t test.
(§2) BGJ398 was purchased from LC Laboratories, Woburn, MA, USA. […]
This test is based on a similar observation than the TST. […] Mice were tested for 5 min, and the time spent immobile (behavioral despair) was quantified.

Fgfr3^Asn534Lys/+ mice [3] = experiment: Novel object location (NOL) in HCH mouse model; assay type: in vivo; settings: 4 months old male Fgfr3^Asn534Lys/+ mice, daily subcutaneous 2 mg/kg for six days, p= 0.9538 vs control littermates, FIG. 3A
Procedure: (§3) FIG. 3: Learning impairment is reverse by FGFR3 tyrosine kinase inhibitor daily subcutaneous injection of BGJ398. A. Novel object location (NOL) was performed in 4 months old male animals. Discrimination index was measured 24 h after training phase to assess memory performance of Fgfr3Asn534Lys/+ and their control littermates. B. Novel object recognition (NOR) was performed in 4 months old male animals. Discrimination index was measured 24 h after training phase to assess memory performance of Fgfr3Asn534Lys/+ + BGJ398, Fgfr3Asn534Lys/+ and their control littermates. NOR and NOL were performed on two independent groups of Fgfr3Asn534Lys/+ (n=12) Fgfr3Asn534Lys/+ + BGJ398 (n=14) and their controls (n=14).
as §2
For the novel object location task, all procedures were identical to the novel object recognition task except that during the testing phase, rather than presenting a novel object, mice encountered both familiar objects, with one object located in a different place in the arena. The time and frequency of exploration of the novel/relocated object is measured as an index of memory. Behavior was scored on videos by two observers blind to treatment and the total exploration time of the objects was quantified in the testing phases.

Fgfr3^Asn534Lys/+ mice [4] = experiment: Novel object recognition (NOR) in HCH mouse model; assay type: in vivo; settings: 4 months old male Fgfr3^Asn534Lys/+ mice, daily subcutaneous 2 mg/kg for six days, p= 0.8697 vs control littermates, FIG. 3B
Procedure: as §3, with “NOR and NOL were performed on two independent groups of Fgfr3Asn534Lys/+ (n=12) Fgfr3Asn534Lys/+ + BGJ398 (n=14) and their controls (n=14).” left out
as §1
The following behaviors were considered as exploration of the objects: sniffing, licking, or touching the object with the nose or with the front legs or directing the nose to the object at a distance ≤ 1 cm. Investigation was not scored if the mouse was on top of the object or completely immobile. The discrimination index was calculated as (time spent exploring the new object - time spent exploring the familiar object) / (total time spent exploring both objects). […]

FGFR3 [5] = biological target: T1, FGFR3 (Mus musculus, UniProt Q61851, A385E); experiment: FGFR3 overactivation in the brain of CAN mouse model; assay type: in vivo; settings: Fgfr3^A385E/+ mice
T1 construct: from tissue; host or cells: brain (hippocampus) of Fgfr3^A385E/+ knock-in mice

[6] = tested on: FGFR3 related Achondroplasia mouse model; settings: subcutaneous injections, Komla-Ebri et al. 2016; cited from earlier work
FGFR3 [7] = biological target: FGFR3 (Homo sapiens, UniProt P22607); settings: reason given for selecting the inhibitor; cited from earlier work
FGFR3 (Homo sapiens, UniProt P22607), sequence (P22607 23-806, species assumed): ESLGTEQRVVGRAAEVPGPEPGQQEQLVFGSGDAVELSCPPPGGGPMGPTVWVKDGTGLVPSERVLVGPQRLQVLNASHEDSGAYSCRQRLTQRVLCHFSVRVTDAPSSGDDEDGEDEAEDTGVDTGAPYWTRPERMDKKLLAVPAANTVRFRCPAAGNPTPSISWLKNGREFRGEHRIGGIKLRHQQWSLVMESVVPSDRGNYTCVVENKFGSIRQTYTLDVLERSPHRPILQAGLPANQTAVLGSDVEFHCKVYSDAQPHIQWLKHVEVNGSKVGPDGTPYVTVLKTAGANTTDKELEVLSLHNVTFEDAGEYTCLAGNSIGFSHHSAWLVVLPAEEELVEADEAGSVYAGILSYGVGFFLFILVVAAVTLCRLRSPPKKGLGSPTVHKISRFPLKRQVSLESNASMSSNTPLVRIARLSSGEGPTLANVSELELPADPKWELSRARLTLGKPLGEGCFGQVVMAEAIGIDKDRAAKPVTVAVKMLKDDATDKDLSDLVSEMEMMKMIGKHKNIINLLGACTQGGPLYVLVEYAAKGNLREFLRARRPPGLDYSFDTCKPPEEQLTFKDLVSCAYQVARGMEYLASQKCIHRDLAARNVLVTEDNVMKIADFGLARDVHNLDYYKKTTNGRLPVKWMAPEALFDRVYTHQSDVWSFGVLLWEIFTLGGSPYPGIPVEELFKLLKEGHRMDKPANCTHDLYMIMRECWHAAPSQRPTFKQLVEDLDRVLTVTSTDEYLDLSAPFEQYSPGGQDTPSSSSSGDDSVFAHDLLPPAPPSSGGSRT

T1 sequence (Q61851 21-801 A385E): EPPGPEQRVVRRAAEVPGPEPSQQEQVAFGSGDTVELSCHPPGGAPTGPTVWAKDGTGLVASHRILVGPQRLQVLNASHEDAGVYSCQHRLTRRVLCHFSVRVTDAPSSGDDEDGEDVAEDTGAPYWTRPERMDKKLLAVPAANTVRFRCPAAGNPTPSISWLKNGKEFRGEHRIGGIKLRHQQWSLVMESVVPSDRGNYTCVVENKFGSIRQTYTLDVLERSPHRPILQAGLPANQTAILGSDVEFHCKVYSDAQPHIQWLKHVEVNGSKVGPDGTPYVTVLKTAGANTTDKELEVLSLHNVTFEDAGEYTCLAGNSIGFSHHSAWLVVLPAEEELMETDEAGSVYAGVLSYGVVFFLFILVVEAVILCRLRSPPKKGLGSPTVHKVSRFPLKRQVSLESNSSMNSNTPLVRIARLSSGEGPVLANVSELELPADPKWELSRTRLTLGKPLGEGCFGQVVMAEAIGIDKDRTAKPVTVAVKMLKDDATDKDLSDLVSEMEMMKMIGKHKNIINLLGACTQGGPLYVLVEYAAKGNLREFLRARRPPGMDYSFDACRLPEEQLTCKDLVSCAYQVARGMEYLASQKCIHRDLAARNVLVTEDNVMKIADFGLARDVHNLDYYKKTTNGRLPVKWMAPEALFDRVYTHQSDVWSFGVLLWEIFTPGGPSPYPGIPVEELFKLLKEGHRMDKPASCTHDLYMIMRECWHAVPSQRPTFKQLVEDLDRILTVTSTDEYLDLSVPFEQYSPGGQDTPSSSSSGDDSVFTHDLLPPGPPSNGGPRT

CCN1CCN(c2ccc(Nc3cc(N(C)C(=O)Nc4c(Cl)c(OC)cc(OC)c4Cl)ncn3)cc2)CC1 [BGJ398, 3-(2,6-dichloro-3,5-dimethoxyphenyl)-1-[6-[4-(4-ethylpiperazin-1-yl)anilino]pyrimidin-4-yl]-1-methylurea]
memory deficits in the NOR paradigm (discrimination index) (Fgfr3^A385E/+ mice [1]): reversed the memory deficits
coping strategy to an inescapable stress in the FST (immobility duration) (Fgfr3^A385E/+ mice [2]): reestablished the coping strategy to an inescapable stress
spatial memory deficit (NOL), exploration of the relocated object (Fgfr3^Asn534Lys/+ mice [3]): sufficient to restore the spatial (NOL)
episodic memory deficit (NOR), exploration of the novel object (Fgfr3^Asn534Lys/+ mice [4]): to the same levels than control littermates
FGFR3 overactivation in the brain (FGFR3 [5]): inhibited the FGFR3 overactivation in the brain
FGFR3 over-activation [6]: abolished the FGFR3 over-activation
chondrodysplasia phenotype / skeletal anomalies [6]: rescued the chondrodysplasia phenotype; also recorded: efficacy of BGJ398 in skeletal anomalies
binding specificity for FGFR3 (FGFR3 [7]): highest binding specificity for FGFR3
